Assay results published in doi:10.1101/2022.06.13.496020v1 (biorxiv, 2022).
pEC50: −log10 of the molar value.

Tests used:
Experiment in all cases: LANCE cAMP accumulation, transfected CHO-K1 cells
Assay type in all cases: cell-based
[1] = biological target: TSHR (full-length, 21-764) (Homo sapiens, UniProt P16473, V586A)
[2] = biological target: TSHR (full-length, 21-764) (Homo sapiens, UniProt P16473, M572A)
[3] = biological target: TSHR (full-length, 21-764) (Homo sapiens, UniProt P16473, I640A)
[4] = biological target: TSHR (full-length, 21-764) (Homo sapiens, UniProt P16473)
[5] = biological target: TSHR (full-length, 21-764) (Homo sapiens, UniProt P16473, A644F)
Chain of TSHR (full-length, 21-764) (Homo sapiens, UniProt P16473, A644F) (P16473 21-764 A644F): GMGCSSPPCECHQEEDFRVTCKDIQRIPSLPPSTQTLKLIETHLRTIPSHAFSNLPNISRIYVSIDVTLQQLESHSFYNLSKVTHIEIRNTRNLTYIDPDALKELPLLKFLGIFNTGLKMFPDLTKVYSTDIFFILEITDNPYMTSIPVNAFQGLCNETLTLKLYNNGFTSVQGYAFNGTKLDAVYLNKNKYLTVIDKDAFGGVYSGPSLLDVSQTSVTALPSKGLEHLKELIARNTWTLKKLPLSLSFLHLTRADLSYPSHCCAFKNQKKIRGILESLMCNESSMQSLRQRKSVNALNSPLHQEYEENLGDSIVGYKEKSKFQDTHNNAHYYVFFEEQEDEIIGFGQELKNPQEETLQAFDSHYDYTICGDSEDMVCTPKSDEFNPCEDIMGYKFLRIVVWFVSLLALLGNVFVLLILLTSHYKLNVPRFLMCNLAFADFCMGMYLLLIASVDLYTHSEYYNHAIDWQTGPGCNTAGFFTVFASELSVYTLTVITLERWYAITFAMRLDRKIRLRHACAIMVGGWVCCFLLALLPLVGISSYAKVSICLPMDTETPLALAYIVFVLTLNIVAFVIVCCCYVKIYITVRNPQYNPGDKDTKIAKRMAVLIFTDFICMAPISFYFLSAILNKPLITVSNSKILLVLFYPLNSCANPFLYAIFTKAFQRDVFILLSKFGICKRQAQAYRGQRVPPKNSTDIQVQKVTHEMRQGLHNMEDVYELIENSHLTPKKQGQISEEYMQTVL

Chain of TSHR (full-length, 21-764) (Homo sapiens, UniProt P16473, I640A) (P16473 21-764 I640A): as the sequence (P16473 21-764 A644F) above, with I620A, F624A counted along it
Chain of TSHR (full-length, 21-764) (Homo sapiens, UniProt P16473, V586A) (P16473 21-764 V586A): as the sequence (P16473 21-764 A644F) above, with V566A, F624A counted along it
Chain of TSHR (full-length, 21-764) (Homo sapiens, UniProt P16473, M572A) (P16473 21-764 M572A): as the sequence (P16473 21-764 A644F) above, with M552A, F624A counted along it
Chain of TSHR (full-length, 21-764) (Homo sapiens, UniProt P16473) (P16473 21-764): as the sequence (P16473 21-764 A644F) above, with F624A counted along it

Molecule `COc1ccc([C@H]2Nc3cccc(O)c3C(=O)N2Cc2ccccc2)cc1COc1ccc(NC(C)=O)cc1` [ML-109] has a pEC50 [1] of 5.69, a pEC50 [2] of 5.62 and a pEC50 [3] of 5.94. The pEC50 [4] was 6.48 and the pEC50 [5] was 5.75.
